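GI50: concentration for 50% inhibition of growth. TGI: total growth inhibition.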
Columns and labels:
Assay in all cases: NCI-60 cell line screen, 384-well format
IGROV1 ovarian = system: IGROV1 ovarian
HT29 colon = system: HT29 colon
M14 melanoma = system: M14 melanoma
MALME-3M melanoma = system: MALME-3M melanoma
NCI/ADR-RES ovarian = system: NCI/ADR-RES ovarian
NCI-H460 NSCLC = system: NCI-H460 NSCLC
RXF 393 renal = system: RXF 393 renal
SNB-19 CNS = system: SNB-19 CNS
TK-10 renal = system: TK-10 renal
HS 578T breast = system: HS 578T breast
HCC-2998 colon = system: HCC-2998 colon
MCF7 breast = system: MCF7 breast
HOP-92 NSCLC = system: HOP-92 NSCLC

`Cc1cc2c(cc1C)NC1=C(N2)OC(c2c3ccccc3cc3ccccc23)C1=O` (configuration not stated) gave a GI50 (IGROV1 ovarian) of 953 nM, a TGI (IGROV1 ovarian) of 2630 nM and a GI50 (HT29 colon) of 303 nM. For the same compound, the TGI (HT29 colon) was 988 nM, the GI50 (M14 melanoma) was 290 nM and the TGI (M14 melanoma) was 653 nM. It also gave a GI50 (MALME-3M melanoma) of 334 nM, a TGI (MALME-3M melanoma) of 1100 nM and a GI50 (NCI/ADR-RES ovarian) of 194 nM. The TGI (NCI/ADR-RES ovarian) was 355 nM, the GI50 (NCI-H460 NSCLC) was 260 nM and the TGI (NCI-H460 NSCLC) was 654 nM. The GI50 (RXF 393 renal) was 285 nM, the TGI (RXF 393 renal) was 513 nM and the GI50 (SNB-19 CNS) was 397 nM. For the same compound, the TGI (SNB-19 CNS) was 1540 nM, the GI50 (TK-10 renal) was 548 nM and the TGI (TK-10 renal) was 7540 nM. The GI50 (HS 578T breast) was 178 nM, the TGI (HS 578T breast) was 355 nM and the GI50 (HCC-2998 colon) was 688 nM. It also gave a TGI (HCC-2998 colon) of 1570 nM, a GI50 (MCF7 breast) of 397 nM and a TGI (MCF7 breast) of 1910 nM. It also gave a GI50 (HOP-92 NSCLC) of 398 nM and a TGI (HOP-92 NSCLC) of 1490 nM.

With `O=C(O)c1ccc(CN2CCC(CN[C@@H]3C[C@H]3c3ccccc3)CC2)cc1` the GI50 (IGROV1 ovarian) was > 100000 nM, the TGI (IGROV1 ovarian) was > 100000 nM and the GI50 (HT29 colon) was > 100000 nM. For the same compound, the TGI (HT29 colon) was > 100000 nM, the GI50 (M14 melanoma) was > 100000 nM and the TGI (M14 melanoma) was > 100000 nM. For the same compound, the GI50 (MALME-3M melanoma) was > 100000 nM, the TGI (MALME-3M melanoma) was > 100000 nM and the GI50 (NCI/ADR-RES ovarian) was > 100000 nM. For the same compound, the TGI (NCI/ADR-RES ovarian) was > 100000 nM, the GI50 (NCI-H460 NSCLC) was > 100000 nM and the TGI (NCI-H460 NSCLC) was > 100000 nM. The GI50 (RXF 393 renal) was > 100000 nM, the TGI (RXF 393 renal) was > 100000 nM and the GI50 (SNB-19 CNS) was > 100000 nM. The TGI (SNB-19 CNS) was > 100000 nM, the GI50 (TK-10 renal) was > 100000 nM and the TGI (TK-10 renal) was > 100000 nM. For the same compound, the GI50 (HS 578T breast) was > 100000 nM, the TGI (HS 578T breast) was > 100000 nM and the GI50 (HCC-2998 colon) was > 100000 nM. For the same compound, the TGI (HCC-2998 colon) was > 100000 nM, the GI50 (MCF7 breast) was > 100000 nM and the TGI (MCF7 breast) was > 100000 nM. For the same compound, the GI50 (HOP-92 NSCLC) was > 100000 nM and the TGI (HOP-92 NSCLC) was > 100000 nM.

From PubChem BioAssay (NCI)
